Measurements: patent publication US20070208009A1, “COMBINATION OF ANTI-HIV REVERSE TRANSCRIPTASE AND PROTEASE INHIBITORS” (priority 2004, published 2007)
Read-outs that look alike come from different tables or passages of the source.

Key:
HIV-1 RT = biological target: T1, HIV-1 RT (Human immunodeficiency virus type 1 group M subtype B, UniProt P04585); settings: inhibition of HIV-1 RT; competitive with deoxyadenosine triphosphate incorporation; read-out: inhibition constant; cited from earlier work
T1 construct: The primary target of tenofovir diphosphate is reverse transcriptase (RT)

[1] = test system: laboratory HIV-1 strains and primary clinical isolates; settings: cited from earlier work
[2] = atazanavir/ritonavir 300/100 mg once daily, cited from earlier work
[3] = ritonavir 100 mg once daily with atazanavir, cited from earlier work
[4] = cited from earlier work; for Geometric mean ratio (95% confidence interval) for the AUC: saquinavir hard gel/ritonavir 1000/100 mg twice daily + tenofovir disoproxil fumarate 300 mg once daily
[5] = healthy subjects, cited from earlier work; for AUC increase / Cmax increase / Cmin increase: saquinavir/ritonavir 1000/100 mg twice daily with tenofovir disoproxil fumarate 300 mg once daily vs alone
[6] = Volunteer study of TMC114/ritonavir with tenofovir disoproxil fumarate, pharmacokinetics and tolerability
Description: Methods: 13 healthy volunteers were randomised into 2 cohorts.
In session 2, both cohorts received 300 mg tenofovir disoproxil fumarate qd for 14 days.

[7] = lopinavir/ritonavir 400/100 mg twice daily 14 days + tenofovir 300 mg once daily, healthy volunteers; cited from earlier work
[8] = after addition of tenofovir disoproxil fumarate 300 mg once daily
[9] = before addition of tenofovir disoproxil fumarate
[10] = in the presence of tenofovir 300 mg once daily
[11] = tenofovir disoproxil fumarate 300 mg qd with TMC114/ritonavir co-administered vs alone, statistically significant

## CC(Cn1cnc2c(N)ncnc21)OCP(=O)(O)OP(=O)(O)OP(=O)(O)O (stereo in doubt) [tenofovir diphosphate]
HIV-1 RT
  Ki: ~900 nM

## CC(C)CN(C[C@@H](O)[C@H](Cc1ccccc1)NC(=O)OC1CO[C@H]2OCC[C@@H]12)S(=O)(=O)c1ccc(N)cc1 (some centres unmarked) [TMC114]
[1]
  IC90: ~9 nM
[1]; read-out: 50% inhibitory concentration [IC50]
  IC50: ~3 nM

## COC(=O)N[C@H](C(=O)N[C@@H](Cc1ccccc1)[C@@H](O)CN(Cc1ccc(-c2ccccn2)cc1)NC(=O)[C@@H](NC(=O)OC)C(C)(C)C)C(C)(C)C [atazanavir]
[2]; [8]
  AUC (mean±sd): 39276 ± 23034 ng·h/mL
  Cmax (mean±sd): 3443 ± 1412 ng/mL
[2]; [9]
  AUC (mean±sd): 53761 ± 35255 ng·h/mL
  Cmax (mean±sd): 5233 ± 3033 ng/mL

## CC(C)c1nc(CN(C)C(=O)N[C@H](C(=O)N[C@@H](Cc2ccccc2)C[C@H](O)[C@H](Cc2ccccc2)NC(=O)OCc2cncs2)C(C)C)cs1 [ritonavir]
[3]; [10]
  AUC: 5217 ng·h/mL
  Cmax: 642 ng/mL
[3]; without tenofovir, HIV+ subjects
  AUC: 7011 ng·h/mL
[3]; without tenofovir
  Cmax: 886 ng/mL
[4]; in vivo
  plasma concentrations compared with day 1: not significantly different

## CC(C)(C)NC(=O)[C@@H]1C[C@@H]2CCCC[C@@H]2CN1C[C@@H](O)[C@H](Cc1ccccc1)NC(=O)[C@H](CC(N)=O)NC(=O)c1ccc2ccccc2n1 [saquinavir]
[4]; day 3 vs day 1
  Geometric mean ratio (95% confidence interval) for the AUC: 1.16 (0.97, 1.59)
[4]; day 14 vs day 1
  Geometric mean ratio (95% confidence interval) for the AUC: 0.99 (0.87, 1.30)
[4]; following the addition of tenofovir disoproxil fumarate
  plasma concentrations compared with day 1: not significantly different
[5]
  AUC increase: 29%
  Cmax increase: 22%
  Cmin increase: 47%
[5]; saquinavir/ritonavir 1000/100 mg twice daily
  Cmin achieved by all subjects: above 100 ng/ml

## C[C@H](Cn1cnc2c(N)ncnc21)OCP(=O)(O)O [tenofovir]
[6]; in the presence and absence of TMC114/RTV
  urinary excretion of unchanged drug during one dosing interval: approximately 36%
[6]; [11]
  AUC24h (systemic exposure) increase based on the ratio of LSmeans: 22%
  Cmax increase based on the ratio of LSmeans: 24%
  Cmin increase based on the ratio of LSmeans: 37%
[7]
  AUC increase: 34%
  Cmax increase: 31%
  Cmin increase: 29%
[5]
  AUC increase: 14%
  Cmax increase: 15%
  Cmin increase: 23%
